Measurements: US8048869B2, “Pharmaceutical composition for use in hormone replacement therapy” (Pantarhei Bioscience B.V., priority 2001, dated 2011)

Legend:
[1] = target: T1, rat uterine cytosol estrogen receptor (Rattus norvegicus, UniProt P06211); conditions: cited from earlier work
T1 construct: host or cells: rat uterus (cytosol and nuclear fractions), Martucci et al. 1976
T1 sequence (P06211 1-600): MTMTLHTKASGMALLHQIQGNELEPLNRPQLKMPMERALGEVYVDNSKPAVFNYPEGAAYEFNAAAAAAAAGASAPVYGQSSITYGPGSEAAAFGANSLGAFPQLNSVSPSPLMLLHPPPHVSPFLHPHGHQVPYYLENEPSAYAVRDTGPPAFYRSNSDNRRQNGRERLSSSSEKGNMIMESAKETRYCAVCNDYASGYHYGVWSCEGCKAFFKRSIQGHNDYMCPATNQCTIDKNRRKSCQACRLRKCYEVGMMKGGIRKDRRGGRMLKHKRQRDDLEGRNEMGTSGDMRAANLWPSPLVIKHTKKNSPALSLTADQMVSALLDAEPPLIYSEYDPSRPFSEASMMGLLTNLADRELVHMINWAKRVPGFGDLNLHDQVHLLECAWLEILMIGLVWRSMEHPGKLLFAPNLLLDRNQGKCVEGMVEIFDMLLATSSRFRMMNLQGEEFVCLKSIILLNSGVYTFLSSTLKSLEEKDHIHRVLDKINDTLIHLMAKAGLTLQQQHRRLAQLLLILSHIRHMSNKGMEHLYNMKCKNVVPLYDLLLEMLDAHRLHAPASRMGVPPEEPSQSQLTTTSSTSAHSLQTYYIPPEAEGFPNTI

[2] = system: OVX-rats; assay: pQCT densitometry of proximal tibiae, ovariectomized aged rat osteoporosis model; assay type: in vivo; set-up: anti-resorptive activity compared with positive control EE: dose or concentration left out as unconfirmed; conditions: po, 4 weeks; for Mean Total Bone Mineral Area / Mean Total Bone Mineral Content / Mean Total Bone Mineral Density / Mean Trabecular Bone Mineral Area / Mean Trabecular Bone Mineral Content / Mean Trabecular Bone Mineral Density: proximal tibiae
Experimental: The ovariectomized aged rat was used as a model for the human disease osteoporosis. This is an established animal model, recommended by the United States Food and Drug Administration (FDA), to evaluate and assess potential agents for osteoporosis prevention and therapy. The anti-resorptive efficacy of estetrol (E4) was tested by ex vivo measuring total and trabecular bone mineral density and bone strength after 4 weeks of treatment at necropsy. 17α-ethinyl-estradiol (EE) and vehicle (1% ethanol/arachidis oil) served as controls in this bioassay.
Three months old female Sprague-Dawley rats were either sham-operated (Sham) or ovariectomized (OVX) one day prior to commencement of the dosing study. Animals were anesthetized using a ketamine/xylazine anesthetic mixture and underwent a bilateral ovariectomy or were sham-treated. A section of hair on the dorsal surface was shaved and an incision made overlying the lumbar region of the spine. The skin was separated from the underlying fascia so that a second incision could be made through the abdominal musculature approximately caudal to the kidneys. The ovaries were then exteriorized and removed and the musculature was closed with a single suture. The skin incision was closed using surgical staples.
Ten animals per treatment group were orally dosed once per day for four consecutive weeks. […] Vehicle control was daily administered to one group of OVX-animals and sham-operated rats. After treatment, anesthetized rats were subjected to cardiac puncture and asphyxiated by CO2 inhalation. Tibiae and femura were removed, cleaned of soft-tissue and fixed and stored in 70% ethanol/saline at 4° C. (tibia) or saline at 4° C. (femura) until fuirther analysis.
Ex vivo peripheral Quantitative Computed Tomography (pQCT) was performed on the excised left tibiae using a Stratec XCT-RM and associated software (Stratec Medizintechnik GmbH, Pforzheim; Germany, software version 5.40). The scans were performed at 12% of the total length from the proximal end of the tibiae. The positions were verified using scout views and one 0.5-mm slice perpendicular to the long axis of the tibial shaft was acquired from each site. The scans were analyzed using a threshold for delineation of the external boundary. The total and trabecular bone mineral content, area and density at each site were determined. Furthermore, pQCT data for mean total bone mineral density are depicted in FIG. 1.

C[C@]12CC[C@@H]3c4ccc(O)cc4CC[C@H]3[C@@H]1[C@@H](O)[C@@H](O)[C@@H]2O [E4, 1,3,5 (10)-estratrien-3,15α,16α,17β-tetrol]
relative binding affinity, 17β-estradiol = 100% [1]: 0.5% | Mean Total Bone Mineral Area ([2]; 0.1 mg/kg/day): 14.41 mm^2 | Mean Total Bone Mineral Content ([2]; 0.1 mg/kg/day): 8.46 mg/mm | Mean Total Bone Mineral Density ([2]; 0.1 mg/kg/day): 588.62 mg/mL | Mean Trabecular Bone Mineral Area ([2]; 0.1 mg/kg/day): 6.48 mm^2 | Mean Trabecular Bone Mineral Content ([2]; 0.1 mg/kg/day): 0.96 mg/mm | Mean Trabecular Bone Mineral Density ([2]; 0.1 mg/kg/day): 145.46 mg/mL | Mean Total Bone Mineral Area ([2]; 0.5 mg/kg/day): 14.80 mm^2 | Mean Total Bone Mineral Content ([2]; 0.5 mg/kg/day): 9.74 mg/mm | Mean Total Bone Mineral Density ([2]; 0.5 mg/kg/day): 660.57 mg/mL | Mean Trabecular Bone Mineral Area ([2]; 0.5 mg/kg/day): 6.65 mm^2 | Mean Trabecular Bone Mineral Content ([2]; 0.5 mg/kg/day): 1.60 mg/mm | Mean Trabecular Bone Mineral Density ([2]; 0.5 mg/kg/day): 243.31 mg/mL | anti-resorptive activity compared with positive control EE ([2]; highest dose): equivalent to the effect seen with the positive control EE
